Measured values: PMC5668434, “Modulation of telomere protection by the PI3K/AKT pathway” (Nature Communications, 2017)
pIC50: −log10 of the molar value.

Tests used:
Akt3 = tested on: Akt3; design: method as in earlier work; conditions: reported in literature; read-out: Reported data IC50 Akt 3; cited from earlier work
PI3K (p110α) = biological target: T1, PI3K (p110α) (Homo sapiens, UniProt P42336); assay: PI3K alpha biochemical assay (ADP Hunter Plus); conditions: internal data; read-out: PI3Kα IC50
T1 construct: purchased Cama Biosciences (sic; Carna Biosciences) #07CBS-0402A

CHA 9-3 cells = assay: Multitelomeric signals (MTS) by Q-FISH on metaphase spreads; assay type: cell-based, mouse; conditions: 10 μM, 24 h
Text: Trf1 abrogation is known to lead to a persistent DDR at telomeres, and to induction of telomere-induced chromosomal aberrations[28]–[30]. Trf1 genetic deletion induces the so-called multitelomeric signals (MTS), a chromosomal aberration related to increased telomere fragility during DNA replication, [29]. […] To this end, we treated CHA 9-3 cells with either DMSO, the AKT inhibitor MK-2206 (AKTi) and the PI3K inhibitors ETP-47037 or ETP-47228. For detection of MTS, we performed quantitative fluorescence in situ hybridization (Q-FISH) analysis on metaphase spreads using a telomeric probe to visualize telomeres (“Methods” section). MTS are visualized by presenting a multi-dot pattern at chromosome ends in contrast to normal telomeres that show a single dot at each chromosome end.
Lung cancer-derived cell line (CHA-9-3) and immortalized P110α ^lox/lox MEFS were treated either with 10 µM of ETP-47037, ETP-47228, or AKTi (MK-2206) for 24 h. Q-FISH in metaphase spreads was performed as described above, but increasing the concentration of formamide in both the incubation and the washes to 70%.

[1] = tested on: TRF1 protein in CHA 9-3 nuclear extracts; assay: Western blot of nuclear TRF1 in CHA 9-3 cells; assay type: cell-based, mouse; conditions: 10 μM
Procedure: (§1) Blots were incubated with the primary antibodies anti-TRF1 1:500 (home-made monoclonal Rat, CNIO; TRF-78, ABCAM, ab10579) and with anti-SMC1 1:2000 (Bethyl Laboratories #A300-055A) as loading control. For nuclear protein preparation, the Nuclear/Cytosol Fractionation Kit (K266-100, BioVision) was used according to the manufactures protocol.

[2] = tested on: TRF1 foci in CHA-9.3 mouse lung tumor cell line; assay: TRF1 foci immunofluorescence in CHA-9.3 cells; assay type: cell-based
Procedure: (§2) TRF1 immunofluorescence of TRF1 was performed in lung tumor-derived cell line (CHA9.3) and in MEFs[39]. A rat monoclonal antibody against mouse TRF1 developed by the Monoclonal antibody unit at CNIO was used to detect endogenous TRF1 (1:500). GFP-TRF1 fluorescence was directly measured in cells fixed in paraformaldehyde. For quantification of TRF1 foci intensity, pictures of fixed cells were automatically acquired from each well by the Opera HCS system (Perkin Elmer). Sixty images of random fields per well, with a 40× magnification lens, were taken under non-saturating conditions. At least 1 × 10^3 cells were analyzed for each well. Briefly, images were segmented using the DAPI staining to generate masks matching cell nuclei from which-TRF1 foci were analyzed.

[3] = tested on: TRF1 foci in p53−/− mouse embryo fibroblasts (MEF); assay: TRF1 foci immunofluorescence in p53−/− MEFs; assay type: cell-based; conditions: 10 μM, 24 h
Procedure: We then checked whether PI3Kα/AKT inhibition also leads to decreased TRF1 foci in an additional cell type to CHA-9.3 cells. Thus, we used p53 ^−/− mouse embryo fibroblasts (MEF). We treated these MEFs either with the AKT inhibitor MK-2206 or with ETP-47037 at 10 μM concentration for 24 h and analyzed TRF1 foci by immunofluorescence.
as §2

[4] = tested on: TRF1 protein in p53−/− MEFs nuclear extracts; assay: Western blot of nuclear TRF1 in p53−/− MEFs; assay type: cell-based, mouse; conditions: 10 μM
Procedure: as §1

Akt2 = tested on: Akt2; design: method as in earlier work; conditions: reported in literature; read-out: Reported data IC50 Akt 2; cited from earlier work
[5] = tested on: p-AKT S473 in CHA-9.3 mouse lung cancer cell line; assay: Western blot of AKT phosphorylation at Ser473 in CHA-9.3 cells; assay type: cell-based; conditions: 10 μM (GSK-2126458 1.0 μM), 24 h
Procedure: These new chemical probes were prepared by replacement of a single key oxygen atom from the morpholine moiety by a methylene group, generating the piperidine derivatives ETP-51259 and ETP-50952 (Fig. 1a). To assess their PI3K cellular activity, we measured phosphorylation of residue Ser473 in AKT (p-AKT S473), a PI3K downstream target[61]–[63], by western blot analysis. To this end, we used the CHA-9.3 mouse lung cancer cell line previously generated by us[39]. […] Of note, the inhibitory activity of ETP-47037 was more prolonged than that of ETP-47228. Thus, ETP-47037 mediated p-AKT S473 inhibition was maintained during the 24-hour treatment while the ETP-47228 mediated inhibition decreased 35% after 24 h as compared to 1-h treatment but still was able to inhibit the pathway above 50% (Fig. 1c).
For detection of AKT, PRAS40 (T246) and pS6 in CHA9.3 cells, untreated control (DMSO) or treated with the indicated inhibitors, were lysed in RIPA buffer supplemented with 100 mM pefablock (Roche Diagnostics) and protease inhibitor cocktail (Roche Molecular Biochemicals). Proteins were resolved on 10% SDS-PAGE, and transferred to nitrocellulose membrane (Amersham^TM Protan^TM 0.2 µm nNC). Membranes were incubated with antibodies against phospho-AKT (Ser473), AKT, phospo-S6 (Ser 235/236), and S6Ribosomal from Cell Signaling, phospo-PRAS40 (Thr246) from BIOSURCE and anti α-tubulin form Sigma, overnight at 4 °C. After washing, blots were incubated with secondary antibody: Alexa Fluor 680 goat anti-rabbit IgG (Invitrogen) or anti-mouse IgG DyLight 800 conjugated (Thermo Scientific), and visualized using an Odyssey infrared imaging system (Li-Cor Biosciences).

human AKT1 = biological target: T2, human AKT1 (Homo sapiens, UniProt P31749); assay: In vitro TRF1 phosphorylation by AKT1; assay type: biochemical; conditions: MK-2206 25 μM
T2 construct: purchased ProQinase 1379-0000-2
Procedure: To address whether TRF1 is a direct substrate of AKT, affinity purified GST-TRF1 was incubated with purified human AKT1 (1379-0000-2, ProQinase) in the presence of γ-^32ATP. As positive control, a GSK3 (14-27) peptide (0349-0000-5, prokinase) was also used as substrate. AKT1 yielded a TRF1 phosphorylation signal after incubation with purified GST-TRF1 during 1 h, which was decreased in the presence of AKT inhibitor (see asterisk in Fig. 5a, left). AKT1 also yielded a phosphorylation signal in the positive control peptide GSK3 (14-27) that was reduced in the presence of AKT inhibitor (Fig. 5a, right). An autophospholyration activity of AKT1 was detected after 1 h of incubation and this activity was reduced in the presence of AKT inhibitor (Fig. 5a). Together, these findings indicate that TRF1 is a direct substrate of AKT1.
One μg of purified GST-TRF1 was incubated with 0.2 μg of human GST-AKT1 (1379-0000-2, ProQinase) with or without AKT inhibitor (MK-2206, 25 μM) in kinase buffer (50 mM Hepes pH 7.9, 100 μM ATP, 10 mM MgCl2, 5 mM DTT) containing 5 μCi [γ-^32-P]ATP in a total volume of 25 μl. The peptide RBER-GSK3(14-27) (0349-0000-5, ProQinase) (100 ng) was used as positive control. The reactions were performed at 30 °C for […] and stopped by addition of Lamely buffer (6×). Samples were resolved in 4–12% SDS-PAGE gels and subjected to autoradiography.

mTOR (FRAP1) = biological target: T3, mTOR (FRAP1) (Homo sapiens, UniProt P42345); assay: mTOR biochemical assay (LanthaScreen); conditions: internal data
T3 construct: purchased ThermoFisher PV4753

[6] = tested on: TRF1 mRNA in CHA 9-3 lung cancer cells; assay: TRF1 mRNA by qPCR; assay type: cell-based, mouse; conditions: 10 μM, 24 h
Akt1 = tested on: Akt1; design: method as in earlier work; conditions: reported in literature; read-out: Reported data IC50 Akt 1; cited from earlier work
mTOR 1 = conditions: reported in literature; cited from earlier work
PI3Kα = conditions: reported in literature; cited from earlier work
PI3Kδ = conditions: reported in literature; cited from earlier work
CHA-9.3 cell line = assay: Cytotoxicity in CHA-9.3 cells; assay type: cell-based, mouse; conditions: 10 μM
PI3Kγ = conditions: reported in literature; cited from earlier work
PI3Kβ = conditions: reported in literature; cited from earlier work
mTOR 2 = conditions: reported in literature; cited from earlier work

T2 sequence (P31749 whole entry): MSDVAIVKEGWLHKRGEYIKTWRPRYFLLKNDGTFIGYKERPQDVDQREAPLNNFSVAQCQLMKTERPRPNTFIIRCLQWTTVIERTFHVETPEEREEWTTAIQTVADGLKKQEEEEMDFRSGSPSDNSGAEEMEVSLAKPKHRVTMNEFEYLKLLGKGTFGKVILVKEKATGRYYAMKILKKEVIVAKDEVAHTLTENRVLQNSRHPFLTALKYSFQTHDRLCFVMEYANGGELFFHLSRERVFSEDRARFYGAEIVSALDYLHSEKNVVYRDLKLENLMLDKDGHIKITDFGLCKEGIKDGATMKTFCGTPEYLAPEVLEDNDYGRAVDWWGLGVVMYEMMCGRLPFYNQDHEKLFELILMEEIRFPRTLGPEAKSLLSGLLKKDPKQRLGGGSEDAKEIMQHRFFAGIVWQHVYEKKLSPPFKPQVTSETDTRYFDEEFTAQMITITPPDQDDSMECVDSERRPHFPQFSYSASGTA
T1 sequence (P42336 whole entry): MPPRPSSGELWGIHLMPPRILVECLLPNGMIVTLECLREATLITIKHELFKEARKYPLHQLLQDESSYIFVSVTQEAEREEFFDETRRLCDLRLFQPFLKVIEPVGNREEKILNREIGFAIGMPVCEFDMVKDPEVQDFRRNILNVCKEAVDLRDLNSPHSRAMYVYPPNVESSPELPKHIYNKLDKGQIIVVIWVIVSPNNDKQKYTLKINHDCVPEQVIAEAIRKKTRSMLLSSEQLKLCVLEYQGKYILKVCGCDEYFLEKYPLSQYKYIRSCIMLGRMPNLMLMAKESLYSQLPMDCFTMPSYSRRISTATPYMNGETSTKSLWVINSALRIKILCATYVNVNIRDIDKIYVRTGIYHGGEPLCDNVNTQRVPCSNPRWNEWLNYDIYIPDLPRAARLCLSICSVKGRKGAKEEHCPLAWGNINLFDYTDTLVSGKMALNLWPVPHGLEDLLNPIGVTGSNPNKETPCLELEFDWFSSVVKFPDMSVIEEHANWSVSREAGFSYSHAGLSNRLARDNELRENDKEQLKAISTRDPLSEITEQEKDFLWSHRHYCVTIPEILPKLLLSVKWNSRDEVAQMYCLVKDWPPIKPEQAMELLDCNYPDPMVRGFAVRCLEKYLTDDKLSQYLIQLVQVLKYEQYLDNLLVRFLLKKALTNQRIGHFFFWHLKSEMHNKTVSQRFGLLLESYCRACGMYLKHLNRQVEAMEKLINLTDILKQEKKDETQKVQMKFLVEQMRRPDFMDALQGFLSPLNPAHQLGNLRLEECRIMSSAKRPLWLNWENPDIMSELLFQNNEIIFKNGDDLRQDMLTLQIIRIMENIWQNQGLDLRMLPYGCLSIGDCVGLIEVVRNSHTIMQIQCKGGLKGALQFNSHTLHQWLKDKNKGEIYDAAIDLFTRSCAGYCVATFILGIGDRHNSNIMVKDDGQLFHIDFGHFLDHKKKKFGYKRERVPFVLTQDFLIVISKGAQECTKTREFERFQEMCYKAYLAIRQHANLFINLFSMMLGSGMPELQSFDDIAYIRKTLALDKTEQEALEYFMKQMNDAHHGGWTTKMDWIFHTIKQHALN
T1 sequence (P27986 whole entry partner): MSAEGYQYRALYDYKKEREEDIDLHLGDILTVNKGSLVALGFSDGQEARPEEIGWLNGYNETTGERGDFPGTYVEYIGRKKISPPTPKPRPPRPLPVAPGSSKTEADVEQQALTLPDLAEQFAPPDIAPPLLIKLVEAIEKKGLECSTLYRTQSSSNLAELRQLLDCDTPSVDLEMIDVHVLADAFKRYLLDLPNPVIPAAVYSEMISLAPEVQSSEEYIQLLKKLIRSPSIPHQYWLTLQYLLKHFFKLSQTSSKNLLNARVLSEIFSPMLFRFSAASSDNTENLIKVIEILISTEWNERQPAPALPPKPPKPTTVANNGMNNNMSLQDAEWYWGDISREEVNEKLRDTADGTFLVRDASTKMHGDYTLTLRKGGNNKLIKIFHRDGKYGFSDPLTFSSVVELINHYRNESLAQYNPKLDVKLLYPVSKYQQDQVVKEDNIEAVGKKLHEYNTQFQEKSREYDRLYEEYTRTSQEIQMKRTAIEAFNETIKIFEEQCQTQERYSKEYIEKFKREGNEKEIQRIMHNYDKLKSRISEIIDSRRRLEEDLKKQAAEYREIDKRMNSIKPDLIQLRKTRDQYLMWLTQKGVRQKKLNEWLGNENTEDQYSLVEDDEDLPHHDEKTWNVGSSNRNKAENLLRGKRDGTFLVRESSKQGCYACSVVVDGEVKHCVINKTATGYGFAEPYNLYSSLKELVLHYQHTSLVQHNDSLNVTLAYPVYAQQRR
T3 sequence (P42345 1360-2549 limits assumed): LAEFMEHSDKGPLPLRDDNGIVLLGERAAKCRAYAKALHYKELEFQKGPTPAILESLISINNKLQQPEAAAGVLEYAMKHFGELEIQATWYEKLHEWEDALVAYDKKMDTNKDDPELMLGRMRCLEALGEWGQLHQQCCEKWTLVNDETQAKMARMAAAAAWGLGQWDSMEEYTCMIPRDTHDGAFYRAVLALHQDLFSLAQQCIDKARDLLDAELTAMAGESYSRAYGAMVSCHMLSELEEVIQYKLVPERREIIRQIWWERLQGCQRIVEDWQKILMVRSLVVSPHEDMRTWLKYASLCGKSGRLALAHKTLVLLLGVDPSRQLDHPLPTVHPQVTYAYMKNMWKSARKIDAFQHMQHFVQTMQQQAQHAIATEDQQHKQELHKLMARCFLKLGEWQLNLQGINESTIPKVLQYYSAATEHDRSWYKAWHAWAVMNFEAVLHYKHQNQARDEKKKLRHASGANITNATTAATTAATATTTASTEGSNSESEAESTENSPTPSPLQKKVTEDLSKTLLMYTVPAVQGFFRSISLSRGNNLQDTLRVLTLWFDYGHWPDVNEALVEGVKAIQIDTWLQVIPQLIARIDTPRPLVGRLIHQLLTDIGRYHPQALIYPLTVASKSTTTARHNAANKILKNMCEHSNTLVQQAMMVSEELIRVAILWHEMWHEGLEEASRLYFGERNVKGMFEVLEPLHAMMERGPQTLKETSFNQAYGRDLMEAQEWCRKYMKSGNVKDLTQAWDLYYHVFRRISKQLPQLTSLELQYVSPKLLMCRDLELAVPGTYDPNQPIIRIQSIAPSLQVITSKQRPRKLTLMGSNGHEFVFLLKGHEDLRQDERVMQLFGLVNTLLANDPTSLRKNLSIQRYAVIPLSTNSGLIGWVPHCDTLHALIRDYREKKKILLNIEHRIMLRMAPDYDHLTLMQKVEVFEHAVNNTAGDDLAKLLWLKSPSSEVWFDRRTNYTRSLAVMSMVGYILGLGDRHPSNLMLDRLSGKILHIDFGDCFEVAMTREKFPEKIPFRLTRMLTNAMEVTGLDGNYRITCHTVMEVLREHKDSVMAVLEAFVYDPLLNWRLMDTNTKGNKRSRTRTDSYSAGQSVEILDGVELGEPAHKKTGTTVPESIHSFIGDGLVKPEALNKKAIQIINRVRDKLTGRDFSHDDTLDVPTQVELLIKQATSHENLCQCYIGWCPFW

Question: Which results are given for NC1(c2ccc(-c3nc4ccn5c(=O)[nH]nc5c4cc3-c3ccccc3)cc2)CCC1 [MK-2206, reference compound]?
Answer: pIC50 (Akt3): 7.19; pIC50 (PI3K (p110α)): 7.46; Frequency of MTS events per metaphase compared to DMSO (CHA 9-3 cells): significantly increased; TRF1 protein levels in nuclear extracts [1]: significantly decreased; Inhibition of TRF1 foci (in words) ([2]; 10 μM (GSK-2126458 1.0 μM), 24 h, CHA-9.3): effectively inhibited TRF1 foci; TRF1 levels as compared to bortezomib/DMSO-treated control cells ([2]; 10 μM plus bortezomib 50 nM, CHA 9-3): significantly lower; Reduction in TRF1 foci intensity [3]: 22%; Total nuclear TRF1 levels compared to DMSO [4]: decreased; pIC50 (Akt2): 7.92; Phosphorylation of AKT (p-AKT S473) (in words) [5]: strong inhibition; Autophosphorylation activity of AKT1 (human AKT1; 1 h): reduced; Phosphorylation signal of control peptide GSK3 (14-27) by AKT1 (human AKT1): reduced; TRF1 phosphorylation signal by AKT1 (human AKT1; purified GST-TRF1, 1 h): decreased; pIC50 (mTOR (FRAP1)): < 5.00; TRF1 mRNA levels [6]: None of the inhibitors significantly affected; pIC50 (Akt1): 8.10

Question: With COc1ncc(-c2ccc3nccc(-c4ccnnc4)c3c2)cc1NS(=O)(=O)c1ccc(F)cc1F [GSK-2126458] as the compound, how does the pIC50 (mTOR 1) read?
Answer: The pIC50 was 9.74.

Question: What about the Cytotoxicity (CHA-9.3 cell line) of the same compound?
Answer: The Cytotoxicity was “high cytotoxicity”.

Question: What about the pIC50 (mTOR 2) of the same compound?
Answer: The pIC50 was 9.52.
